According to a melting point compilation (Tetko et al.; mined from patent text by program, amines drawn as free bases though some values may be those of a salt):

SMILES	melting point
CC(=O)SCC(CSC(C)=O)C(=O)N1c2ccccc2CCC1C(=O)O (centres undefined)	149 to 151 °C
CS(=O)(=O)Nc1ccc(C(=O)NC(=O)N2CCC(Cc3ccccc3)CC2)cc1	97.5 to 100 °C
COC1N=C(c2ccccc2Cl)c2cc(Cl)ccc2-c2cn(C)cc21 (centres undefined)	128 to 130 °C
COc1ccc(-c2cccc3ccccc23)cc1OC1CCCC1	123 to 125 °C
CC1(C)NC(=O)N(c2ccc(Cl)c(C(F)(F)F)c2)C1=O	152 to 153 °C
Cc1nc(N)c2ncn(N(C)C)c2c1C	205 to 207 °C
CCC12CCC3C4=C(CC(OC)=CC4)C(C)CC3C1CCC2O (centres undefined)	176 to 182 °C
COC(=O)c1ccc(N2CCNCC2)cc1	95 to 97 °C
O=c1cc(Nc2cc([N+](=O)[O-])ccc2Cl)[nH]n1-c1c(Cl)cc(Cl)cc1Cl	274 to 278 °C
CCCCc1ncc(/C=C(\Cc2cccs2)C(=O)O)n1Cc1ccc(O)c(C)c1	150 to 152 °C
COc1ccc2c(c1)c(SC(C)(C)C)c(CC(C)(C)C(=O)O)n2Cc1ccc(Cl)cc1	190 to 191 °C
CCOP(=O)(CCN1CCC(N(CCN)S(=O)(=O)c2ccc(Nc3nccc(Nc4ccc(F)cc4)n3)cc2)CC1)OCC	90 °C
CC(C)(C)OC(=O)NNc1ccc2ccccc2n1	148 to 150 °C
CN(c1cc(OC(F)(F)F)cc2cc(C3=NCC(CC(=O)O)S3)[nH]c12)S(=O)(=O)c1cccs1 (centres undefined)	225 to 227 °C
O=[N+]([O-])c1ccc(N2Cc3ccccc3P2(=O)c2ccccc2)cc1 (centres undefined)	255 to 257 °C
CCOC(=O)NC(=O)c1c(Cl)ccc2c(C(F)(F)F)c(OC)ccc12	169 to 171 °C
CCCc1c(OCCCOc2cc(NC(=O)c3nnn[nH]3)c(C)cc2Br)ccc(C(C)=O)c1O	63 to 65 °C
Cc1ccc(CSc2nc(C)n(C)c(=O)c2Br)cc1	73 to 74 °C
OC(CCN1CC=C(c2ccccc2)CC1)c1ccc(Cl)cc1Cl (centres undefined)	103 to 104 °C
N#Cc1c(-c2cccc(N)c2)cc(-c2ccccc2O)nc1NC(=O)c1ccsc1	257 to 260 °C
COc1ccc(/C(C)=C/c2ccc(C(=O)OCc3ccccc3)cc2)cc1C12CC3CC(CC(C3)C1)C2	230 to 240 °C
COc1ccc(SSc2ccc(OC)cc2C(=O)NC(CC(C)C)C(=O)O)c(C(=O)NC(CC(C)C)C(=O)O)c1 (centres undefined)	168 to 169 °C
COc1ccccc1N1CCN(CCn2c(=O)c3cscc3n(C(C)=O)c2=O)CC1	128 to 129 °C
Nc1c(Cl)cc(C(O)CNCCCCCCOCCc2ccc(N3CCOCC3)cc2)cc1Cl (centres undefined)	102 to 103 °C
CC1(C)CC(=O)C(Br)(Cc2ccc(Cl)cc2)C(Br)C1 (centres undefined)	82 to 84 °C

SMILES	melting point
COc1ccc(-n2nc(Sc3cccc(OC)c3)c(C)c(C#N)c2=O)cc1	143 to 144 °C
CCC1=Nc2cc(Cl)ccc2CC(c2sccc2C)N1C (centres undefined)	94 to 96 °C
Cc1csc2c(CS(=O)c3nc4ccccc4[nH]3)nccc12 (centres undefined)	186 to 188 °C
C=CCON=C(CC)C1=C(O)CC(c2c(C)c(C)c3c(c2C)CC(C)(C)C3)CC1=O (centres undefined)	63 to 65 °C
CN1C(=O)[C@H](NC(=O)/C=C/c2ccccc2Br)N=C(c2ccccc2)c2ccccc21	113 to 116 °C
Cc1cccc(Nc2cc(Nc3cccc(OCC4CO4)c3)ncn2)c1 (centres undefined)	143 to 145 °C
COC(=O)c1c(-c2ccccc2)[nH]c(-c2ccncc2)c1C	202 to 204 °C
CC(=O)Nc1cc(-c2c(-c3cccc(C)c3)nc3ccc(Cl)nn23)ccn1	228 to 229 °C
Nn1cc(Br)c(=O)[nH]c1=O	214 to 215 °C
Fc1ccc(Cn2c(NC3CCN(CCSc4nc5cccnc5s4)CC3)nc3ccccc32)cc1	160 °C
CCCCc1nn(-c2ccc(C(F)(F)F)cn2)cc1CCCOc1cc(CC(=O)O)ccc1OCC	105 to 106 °C
CC(=O)OC1(C)CC(=O)OC(CCc2ccc(OCc3ccccc3)cc2)C1 (centres undefined)	98 to 101 °C
CC(C)(C)CN1C(=O)[C@@H](CCO)O[C@H](c2ccccc2Cl)c2cc(Cl)ccc21 (relative stereo)	157 to 159 °C
C#Cc1cc(C)c(Oc2ccc([N+](=O)[O-])c(Nc3ccc(C#N)cc3)n2)c(C)c1	186 to 188 °C
CCCn1c(=O)c2[nH]c(C3CC4CCC3C4)nc2n(CCC)c1=O (centres undefined)	136 to 138 °C
CC(CC(=O)O)Nc1cccc(Cl)c1 (centres undefined)	50 °C
CC1(C)Oc2ccccc2-n2cnc(-c3noc(C4CC4)n3)c21	155 to 156 °C
COc1ccccc1NC(=O)Nc1nc(NCc2cccs2)nc(N(CCC(=O)O)Cc2cccc(C)c2)n1	89 to 95 °C
CC1=CC2=C(N3CN(N4CCCC4)C=C3N=N2)N(c2cc(Cl)ccc2Cl)C1	157 °C
CCc1c(O)cc(O)c(C(=O)c2ccccc2)c1CC(=O)N1CCN(c2ccccc2C#N)C(=O)C1	259 to 261 °C
O=S(=O)(Nc1ccc(Cl)cc1-c1nc2ccc(S(=O)(=O)N3CCOCC3)cc2[nH]1)c1ccc(Cl)cc1	225 to 228 °C
Fc1ccc(Nc2ncnc3cnc(NCC4CCNCC4)nc23)cc1Cl	204 to 206 °C
Cn1nc(-c2c(Cl)cncc2Cl)nc1Cc1ccc(Cl)cc1Cl	79 to 81 °C
C[C@@H](c1ccccc1)N1C[C@@H](C(N)=O)CC1=O	149 to 150 °C
CCOC(=O)[C@@H]1C[C@H]2C[C@H](COCC#N)CC[C@H]2CN1C(=O)OC (racemic)	263 °C

SMILES	melting point
COCc1cc(C)nc2nc(S(=O)(=O)Nc3c(C)cccc3Cl)nn12	227 °C
N#Cc1ccc(N2CCN(Cc3cnc4c(c3)NC(=O)C3CCCCN43)CC2)cc1 (centres undefined)	212 °C
O=C1C(c2ccccc2)=C(c2ccccc2Cl)C(=O)N1c1ccc(Cl)cc1	46 °C
O=C(O)c1ccc(CN2C(=O)C3CCCC3=Nc3ccc(Cl)cc32)cc1 (centres undefined)	251 to 255 °C
Cc1nc(CCO)c2n1-c1ccc(Cl)cc1C(c1ccccc1Cl)=NC2	170 to 171 °C
O=C1[C@H]2CCC[C@H]2Nc2cc([N+](=O)[O-])ccc2N1Cc1ccccc1 (relative stereo)	174 to 176 °C
CCCCCCCCCCCCCCCCCCCCCCOS(=O)(=O)c1ccc(Cl)cc1	74 to 75 °C
O=C(O)Cc1ccc(CNC(=O)C2Cc3ccccc3N2S(=O)(=O)c2ccc(-c3cccc(C(F)(F)F)c3)cc2)c(Cl)c1 (centres undefined)	95 to 106 °C
CC1(C)Oc2ccc(C#N)cc2[C@@H](NC(=O)c2ccc(Cl)cc2)[C@@H]1O (relative stereo)	226 to 229 °C
CC(C)c1ccc(N(Cc2ccc(N(C)C)cc2)C(=O)C2CCCc3cc(O)ccc32)cc1 (centres undefined)	169 to 171 °C
CCOC(=O)Cc1c(C(=O)OCC)c(C)c(C(=O)c2ccc(Cl)cc2)n1C	91 to 93 °C
COC(=O)CNc1cc(-c2c3ccccc3c(Br)c3sc(C)c(C)c23)cc(Br)c1OC	194 to 198 °C
COCOc1cc(OC)cc(C)c1C(=O)c1ccc(OCc2ccccc2)cc1	49 to 50 °C
N#Cc1ccccc1-c1ccc(CN=[N+]=[N-])cc1	69 to 70 °C
COC(=O)C(=O)c1ccc(OCCCCCCOc2ccccc2)cc1	50 to 52 °C
CC1(C)Cc2ccc(Cl)cc2C=[N+]1[O-]	88 to 89 °C
COC(=O)c1c(O)ccc(CNC(=O)CCCCCNC(=O)OC(C)(C)C)c1O	73 to 76 °C
CNC(=NS(C)(=O)=O)NCCSCc1csc(CN(C)C)n1	95 to 97 °C
COc1c(C(=O)O)[nH]c2cccc(C)c12	136 °C
CS(=O)c1ccc(Oc2ccc(Cl)c(Cl)c2)cc1 (centres undefined)	92 to 93.5 °C
Fc1cccc(F)c1N1CS/C1=N/N=C\c1ccc(-c2ncn(-c3ccc(OC(F)(F)F)cc3)n2)cc1	144 to 146 °C
CCCc1c(C(=O)C(C)C)c2ccc(C(N)=O)cc2n1Cc1ccc(Cl)cc1	183 to 184 °C
CSc1sc(-c2nccs2)c2c1C(=O)CCC2(C)C	188 to 190 °C
Fc1cc(F)c2[nH]c3c(c2c1)CC(N1CCCCC1)CC3 (centres undefined)	> 290 °C
Nc1cc2cccnc2c(Cc2ccccc2)n1	113 to 116 °C

SMILES	melting point
COc1cc(CCN)ccc1O	156 to 158 °C
Cc1ccc(S(=O)(=O)C2=C(C(=O)OCC(C)C)C(=O)C=C(C(=O)OCC(C)C)C2=O)cc1	112 to 114 °C
N#CC1CN1Cc1ccccc1 (centres undefined)	81 to 83 °C
NC(=O)/C(=N/O)c1ccccc1Oc1ccccc1	157 to 159 °C
COc1ccc(-n2nc3c4c([nH]cc-3c2=O)CCCCCC4)cc1	275 to 277 °C
CCCC1CCC2c3ccc(OCC)c(F)c3OC2C1 (centres undefined)	128 °C
O=C1c2cccc(NC3CCCC3)c2C(=O)c2cccc(NC3CCCC3)c21	198 to 201 °C
Cc1c(-c2ccc(F)cc2F)ncnc1C(F)F	54 to 55 °C
O=c1[nH]c2sc3cc(Br)c(F)cc3c2[nH]c1=O	> 300 °C
CC(=O)OC1CCN(c2c(F)cc3c(=O)c(C(=O)O)cn4c3c2CCC4C)CC1 (centres undefined)	250 to 253 °C
CCCn1c(=O)c2[nH]c(-c3cc(C)n(CC(=O)Nc4ccccc4)n3)nc2n(CCC)c1=O	255 to 257 °C
CC12C=CC(=O)C=C1CCC1C2=CCC2(C)C(C(=O)CCl)=CCC12 (centres undefined)	136 to 138 °C
CCc1c(C#N)c(-c2ccc(C#N)cc2)c(C)n1Cc1cnc(Cl)c(CO)c1	126 to 127 °C
CCC(=O)c1ccc(OC(C)c2ccc(Cl)cc2)cc1 (centres undefined)	70 to 71 °C
CN(c1c(Cl)ccc2cc(-c3ncc(CO)s3)[nH]c12)S(=O)(=O)c1cccs1	214 to 215 °C
N=C(N)N1CCC(CCC(=O)O)CC1	> 275 °C
CN1CC(c2ccno2)CC2c3cccc4[nH]cc(c34)CC21 (centres undefined)	132 to 134 °C
CN(C)c1c(C(=O)c2ccccc2)[nH]c2cc(Cl)ccc12	178 to 180 °C
Cc1ccc2cc(C=O)ccc2c1	110 to 111 °C
COC(=O)C(CCC#N)(CCC#N)C(=O)OC	143 °C
COC(=O)NN=C1CCc2ccccc21	155 to 156 °C
COC(=O)c1ccc(CCC(O)CCc2ccc(C(=O)OC)cc2)cc1	129 to 130 °C
O=C1CCCCC(c2ccccc2)N1 (centres undefined)	135 to 137 °C
Clc1ccc(Cl)c(COC2COC(c3ccccc3)OC2)c1Cl (centres undefined)	93.5 to 94 °C
